# From ChEMBL document CHEMBL6103573, “Discovery of novel thienopyridine indole derivatives as inhibitors of tubulin polymerization targeting the colchicine-binding site with potent anticancer activities” (Eur J Med Chem, 2025)
# Active and inactive are the calls of the source. The rule behind the calls is not given here.
# How the values were obtained:
# [1] = Toxicity in female BALB/c-nu nude mouse xenografted with human MGC-803 cells assessed as change in spleen morphology at 5 mg/kg, po administrated every other day for 11 times and measured after 21 days by hematoxylin and eosin staining based analysis; format: organism-based; conditions: in vivo, 504 h, time 21 day
# [2] = system: HGC-27; test: Induction of apoptosis in human HGC-27 cells assessed as increase in cleaved Caspase-9 expression at 0.25 to 2.0 nmol/L incubated for 48 hrs by Western blotting analysis; format: functional, cell-based; conditions: dose 0.25-2 nmol/L
# [3] = Toxicity in female BALB/c-nu nude mouse xenografted with human MGC-803 cells assessed as change in kidney morphology at 5 mg/kg, po administrated every other day for 11 times and measured after 21 days by hematoxylin and eosin staining based analysis; format: organism-based; conditions: in vivo, 504 h, time 21 day
# [4] = system: MGC-803; test: Induction of cell cycle arrest in human MGC-803 cells assessed as downregulation of Wee1 level measured after 48 hrs by Western blot analysis; format: functional, cell-based; conditions: dose 0.25-2 nmol/L
# [5] = molecular target: Tubulin (Homo sapiens) (UniProt P68371+Q9H4B7+P0DPH7+P68366+Q13509+Q71U36+P04350+Q3ZCM7+P07437+P68363+Q9BQE3+Q6PEY2+Q13885+Q9BVA1+Q9BUF5); test: Disruption of microtubule network in human HGC-27 cells assessed as disruption of mitosis at 0.25 to 2.0 nmol/L incubated for 24 hrs by DAPI staining based fluorescence microscopic analysis; format: cell-based; conditions: dose 0.25-2 nmol/L
# [6] = system: MGC-803; test: Induction of cell cycle arrest at G2 phase in human MGC-803 cells assessed as increase in p-Histone H3 level at 0.25 to 2.0 nmol/L measured after 48 hrs by Western blot analysis; format: functional, cell-based; conditions: dose 0.25-2 nmol/L
# [7] = system: HGC-27; test: Induction of apoptosis in human HGC-27 cells assessed as early apoptotic cells at 2.0 nmol/L incubated for 48 hrs by Annexin V-FITC/propidium iodide staining based flow cytometry analysis (reference value: 2.04 %); format: functional
# [8] = system: MGC-803; test: Induction of apoptosis in human MGC-803 cells assessed as increase in total apoptotic rate at 2 nmol/L incubated for 48 hrs by Annexin V-FITC/propidium iodide staining based flow cytometry analysis relative to control; format: functional
# [9] = system: MGC-803; test: Induction of apoptosis in human MGC-803 cells assessed as late apoptotic cells at 2.0 nmol/L incubated for 48 hrs by Annexin V-FITC/propidium iodide staining based flow cytometry analysis (reference value: 2.22 %); format: functional
# [10] = system: HUVEC; test: Anti-vascular activity in HUVEC cells assessed as reduction in width of tubular network incubated for 5 hrs by Matrigel based inverted microscopic analysis; format: functional, cell-based; conditions: Homo sapiens, dose 0.5-2 nmol/L
# [11] = system: HUVEC; test: Anti-migratory activity against HUVEC cells assessed as wound healing rate at 2.0 nmol/L measured after 24 hrs by wound healing assay (reference value: 97 %); format: functional, Homo sapiens
# [12] = system: MGC-803; test: Induction of apoptosis in human MGC-803 cells assessed as early apoptotic cells at 0.5 nmol/L incubated for 48 hrs by Annexin V-FITC/propidium iodide staining based flow cytometry analysis (reference value: 0.83 %); format: functional
# [13] = system: HGC-27; test: Induction of apoptosis in human HGC-27 cells assessed as appearance of bright cells at 0.25 to 2.0 nmol/L incubated for 48 hrs by bright field microscopic analysis; format: functional, cell-based; conditions: dose 0.25-2 nmol/L
# [14] = system: HGC-27; test: Induction of apoptosis in human HGC-27 cells assessed as increase in total apoptotic rate at 2 nmol/L incubated for 48 hrs by Annexin V-FITC/propidium iodide staining based flow cytometry analysis relative to control; format: functional
# [15] = system: MGC-803; test: Antitumor activity against human MGC-803 cells xenografted in female BALB/c-nu nude mouse assessed as tumor inhibition rate at 5 mg/kg, po administrated every other day for 11 times and measured after 21 days relative to control; format: functional; conditions: MGC-803, 504 h, time 21 day, read-out: TGI
# [16] = system: MGC-803; test: Induction of apoptosis in human MGC-803 cells assessed as late apoptotic cells at 1.0 nmol/L incubated for 48 hrs by Annexin V-FITC/propidium iodide staining based flow cytometry analysis (reference value: 2.22 %); format: functional
# [17] = molecular target: T1, Tubulin beta (Homo sapiens) (UniProt P68371+Q9H4B7+Q13509+P04350+Q3ZCM7+P07437+Q13885+Q9BVA1+Q9BUF5+A6NNZ2); test: (§1) Competitive binding affinity to beta-tubulin colchicine binding site in human HGC-27 cells assessed as inhibition of EBI-beta-tubulin adduct band formation at 1 umol/L preincubated for 2 hrs followed by EBI addition and measured after 2 hrs by Western blotting analysis; format: cell-based; conditions: dose 1.0 µmol/L, time 4.0 hrs
# [18] = system: HGC-27; test: Induction of cell cycle arrest in human HGC-27 cells assessed as downregulation of Cdc25c level measured after 48 hrs by Western blot analysis; format: functional, cell-based; conditions: dose 0.25-2 nmol/L
# [19] = system: HUVEC; test: Anti-angiogenesis activity in HUVEC cells assessed as reduction in cell viability by measuring survival rate at 2 nmol/L incubated for 24 hrs by MTT assay relative to control; format: functional; conditions: Homo sapiens, read-out: Survival
# [20] = system: MGC-803; test: Induction of apoptosis in human MGC-803 cells assessed as early apoptotic cells at 0.25 nmol/L incubated for 48 hrs by Annexin V-FITC/propidium iodide staining based flow cytometry analysis (reference value: 0.83 %); format: functional
# [21] = system: MGC-803; test: Antiproliferative activity against human MGC-803 cells assessed as survival rate at 2 nmol/L measured after 6 hrs by MTT assay relative to control; format: functional; conditions: read-out: Survival
# [22] = molecular target: T1, Tubulin beta (Homo sapiens); test: as §1, with “by measuring reduction in adduct band intensity” for “at 1 umol/L”; format: cell-based; conditions: dose 0.1-1 µmol/L, time 4.0 hrs
# [23] = molecular target: T1, Tubulin beta (Homo sapiens); test: as §1, with “MGC-803” for “HGC-27”, “by measuring reduction in adduct band intensity” for “at 1 umol/L”; format: cell-based; conditions: dose 0.1-1 µmol/L, time 4.0 hrs
# [24] = Toxicity in female BALB/c-nu nude mouse xenografted with human MGC-803 cells assessed as change in liver morphology at 5 mg/kg, po administrated every other day for 11 times and measured after 21 days by hematoxylin and eosin staining based analysis; format: organism-based; conditions: in vivo, 504 h, time 21 day
# [25] = system: MGC-803; test: Induction of apoptosis in human MGC-803 cells assessed as late apoptotic cells at 0.5 nmol/L incubated for 48 hrs by Annexin V-FITC/propidium iodide staining based flow cytometry analysis (reference value: 2.22 %); format: functional
# [26] = system: HGC-27; test: Induction of apoptosis in human HGC-27 cells assessed as appearance of round cells at 0.25 to 2.0 nmol/L incubated for 48 hrs by bright field microscopic analysis; format: functional, cell-based; conditions: dose 0.25-2 nmol/L
# [27] = system: HGC-27; test: Induction of apoptosis in human HGC-27 cells assessed as appearance of ruptured cells at 0.25 to 2.0 nmol/L incubated for 48 hrs by bright field microscopic analysis; format: functional, cell-based; conditions: dose 0.25-2 nmol/L
# [28] = system: HUVEC; test: Anti-vascular activity in HUVEC cells assessed as reduction in capillary-like tubules with multi-center junctions incubated for 5 hrs by Matrigel based inverted microscopic analysis; format: functional, cell-based; conditions: Homo sapiens, dose 0.5-2 nmol/L
# [29] = system: MGC-803; test: Induction of apoptosis in human MGC-803 cells assessed as appearance of round cells at 0.25 to 2.0 nmol/L incubated for 48 hrs by bright field microscopic analysis; format: functional, cell-based; conditions: dose 0.25-2 nmol/L
# [30] = system: MGC-803; test: Induction of apoptosis in human MGC-803 cells assessed as early apoptotic cells at 2.0 nmol/L incubated for 48 hrs by Annexin V-FITC/propidium iodide staining based flow cytometry analysis (reference value: 0.83 %); format: functional
smiles,measurement,setting,value
CN(c1ccc2c(ccn2C)c1)c1nc(N2CCCC2)nc2sccc12,Activity,[1],Non-toxic
same,Activity,[2],Active
same,Activity,[3],Non-toxic
same,Activity,[4],Dose-dependent-effect
same,Activity,[5],Active
same,Activity,[6],Active
same,Activity,[7],14.4%
same,Activity,[8],60%
same,Activity,[9],8.06%
same,Activity,[10],Dose-dependent-effect
same,Activity,[11],44%
same,Activity,[12],3.33%
same,Activity,[13],Active
same,Activity,[14],14%
same,inhibition in vivo at 5 mg/kg,[15],45.8%
same,Activity,[16],3.78%
same,Activity,[17],Active; Stronger Affinity Observed
same,Activity,[18],Dose-dependent-effect
same,viability at 0.002 µM,[19],59.2%
same,Activity,[20],1.28%
same,viability at 0.002 µM,[21],86%
same,Activity,[22],Dose-dependent-effect
same,Activity,[23],Dose-dependent-effect
same,Activity,[24],Non-toxic
same,Activity,[25],2.84%
same,Activity,[26],Active
same,Activity,[27],Active
same,Activity,[28],Dose-dependent-effect
same,Activity,[29],Active
same,Activity,[30],54.93%
